Values quoted from earlier work as cited in patent publication US20140234405A1 (priority 2013, published 2014).
No end group written: not given here.

Key:
type 2 diabetes = details: 12 weeks, cited from earlier work
[1] = system: human pancreatic ductal tissue; details: in vitro, without epidermal growth factor; cited from earlier work
beta cell mass = details: after infusion of gastrin in rats; cited from earlier work
gastrin = details: 90 mg/day for 6 years or greater; cited from earlier work

Compound: COc1ccc2nc([S@@+]([O-])Cc3ncc(C)c(OC)c3C)[nH]c2c1 [esomeprazole]
- insulin secretion, glycaemic control, cardiovascular disease biomarkers (type 2 diabetes; patients with type 2 diabetes): did not improve
- change in insulin AUC (type 2 diabetes; control group had 16.3% reduction): no decline in insulin AUC
- increase in area under the curve (AUC) of gastrin (type 2 diabetes; 20 type 2 diabetes patients, 40 mg): 9 fold

Compound: gastrin: gastrointestinal hormone demonstrated to result in new beta cell formation (QGPWLEEEEEAYGWMDF; ends and bridges not checked; UniProt P01350 76-92, looked up)
- beta cell neogenesis from human pancreatic ductal tissue [1]: induce beta cell neogenesis
- beta cell mass (beta cell mass): doubling beta cell mass

Compound: Cc1c(OCC(F)(F)F)ccnc1C[S+]([O-])c1nc2ccccc2[nH]1 (stereo not shown) [Lansoprazole, 1H-Benzimidazole,2-[[[3-methyl-4-(2,2,2-trifluoroethoxy)-2-pyridinyl]methyl]sulfinyl]-2-[[[3-Methyl-4-(2,2,2-trifluoroethoxy)-2-pyridyl]-methyl]sulfinyl]benzimidazole]
- gastrin levels relative to normal (gastrin): ~7 fold
- safety profile (gastrin): sustained safety profile
